One data set has as its system RTP801. The data set can be described thus: Short-term (7 day) cigarette smoking model, intralung delivery of RTP801 siRNA. Format: in vivo, mouse (C57BL6). As for the experimental part:
CS-induced inflammation was induced by 7 day smoking in 2 groups of C57BL6 mice, 10 mice per group. Group 1: CS+delivery of control siRNA (REDD8) siRNA; Group 2: CS+RTP801 siRNA (REDD14). Control groups of mice were instilled with either type of siRNA but kept in room air conditions. The animals were evaluated as in the above experiment with the Knock-Out mice.
Exposure was carried out (7 h/day, 7 days/week) by burning 2R4F reference cigarettes (2.45 mg nicotine per cigarette; purchased from the Tobacco Research Institute, University of Kentucky, Lexington, Ky., USA) using a smoking machine (Model TE-10, Teague Enterprises, Davis, Calif., USA). Each smoldering cigarette was puffed for 2 s, once every minute for a total of eight puffs, at a flow rate of 1.05 L/min, to provide a standard puff of 35 cm^3. The smoke machine was adjusted to produce a mixture of sidestream smoke (89%) and mainstream smoke (11%) by burning five cigarettes at one time. Chamber atmosphere was monitored for total suspended particulates and carbon monoxide, with concentrations of 90 mg/m3 and 350 ppm, respectively.
Following exposure to CS or instillation of RTP801 expressing plasmid, the mice were anesthetized with sodium pentobarbital. […] The total number of cells in the lavage fluid was determined, and 2×10^4 cells were cytocentrifuged (Shandon Southern Products, Pittsburgh, Pa., USA) onto glass slides and stained with Wright-Giemsa stain. […]
Immunohistochemical staining of active caspase-3 assay was performed using anti-active caspase-3 antibody and the active caspase-3-positive cells were counted with a macro, using Image Pro Plus program. […]
The activity of caspase-3 activity was measured in lung tissue extracts using a fluorometric assay according to the manufacturer's instructions. […] After removal of nuclei and cellular debris, the supernatant (300 μg protein) was then incubated with the pro-fluorescent substrate at room temperature for 1 h and the fluorescence intensity was measured utilizing a Typhoon phosphoimager (Amersham Biosciences, Inc., Piscataway, N.J., USA). […]

The next data set has as its system A549 lung tumors. The data set can be described thus: A549 lung tumor growth after inhaled Nrf2 siRNA alone or with carboplatin. As to conditions: lung tumor weights; siRNA 100 μg/dose by nebulizer three times a week for 4 weeks; carboplatin 30 mg/kg i.p. twice/week. Type of data set: in vivo, SCID-Beige mice. As for the experimental part:
(§1) Tumor Xenografts: A549 cells (5×10^6) were injected into the hind leg of male athymic nude mice and the tumor was measured weekly. The tumor volumes were measured using the following formula: [length (mm)×width (mm)×width (mm)×0.52]. In the lung metastasis experiments, 2×10^6 A549-C8-luc cells were injected into SCID-Beige mice (Charles River, Mass.) intravenously.
(§2) For in vivo experiments, all siRNA compounds were chemically synthesized being stabilized by alternating 2-O′-Me modifications on both strands. The sequence of siRNA targeting human Nrf2 used for in vivo experiments is 5′-UCCCGUUUGUAGAUGACAA-3′ (sense) and 5′-UUGUCAUCUACAAACGGGA-3′ (antisense). The sequence of control siRNA targeting GFP is 5′-[…]-3′ (sense) and 5′-[…]-3′ (antisense).
For aerosol delivery of Nrf2 or GFP siRNA into lung tumors, 100 μg of siRNA duplex diluted in PBS was aerosolized using a nebulizer. Mice were given three dose of siRNA (100 μg/dose) every week, for 4 weeks, using a nebulizer. Intraperitoneal injections of carboplatin were given at a dose of 30 mg/kg body weight twice/week.
(§3) In Vivo Imaging: Animals inoculated with A549-C8-luc cells, which express a luciferase reporter gene, were anesthetized and injected intraperitoneally with 250 ul of luminescent substrate (15 mg/ml stock) D-Luciferin Firefly (Xenogen Cat# XR-1001). The animals were then imaged and analyzed by using the Xenogen IVIS Optical Imaging Device in the Johns Hopkins Oncology Center.
Statistical Analysis-Statistical comparisons were performed by Student's t-tests. A value of p<0.05 was considered statistically significant. Tumor weights and changes in tumor volume were summarized using descriptive statistics. Differences in tumor measures between treatment groups were examined using linear regression models with generalized estimating equations (GEE). The distributions of both tumor measurements were skewed, so log transformations were used.

For a further data set, the system named is Nrf2. The data set can be described thus: ARE-Luc Nrf2-dependent reporter activity in orthotopic lung tumors, in vivo imaging. Also noted: species or system SCID-Beige mice. As to conditions: siRNA by nebulizer; mice with A549-C8-luc lung tumors; FIG. 5. As for the experimental part:
as §1, §2
For aerosol delivery of Nrf2 or GFP siRNA into lung tumors, 100 μg of siRNA duplex diluted in PBS was aerosolized using a nebulizer. Mice were given three dose of siRNA (100 μg/dose) every week, for 4 weeks, using a nebulizer. […]
as §3

The nature of data set [1]: Qualitative distribution of REDD14Cy3.5 siRNA in lung and kidney (fluorescence analysis). Type of data set: in vivo, cynomolgus monkeys. How it is done:
On Day 15 of the study, two of the available animals (101 and 102) were administered a target dose of 35 mg/kg of a mixture of I5NP and REDD14Cy3.5 (fluorescence-labelled) siRNA via an oronasal mask as a nebulized aerosol generated by the Aeroneb device. A 2.0 L/min dilution airflow was used. The total dose of siRNA administered was calculated, based on the bodyweights and measured respiratory minute volumes of the animals, and on the achieved output of the Aeroneb device using the formulation concentration of 40 mg/mL of siRNA. The administered dose was adjusted by changing the exposure times for the animals
At the time of necropsy following Treatment 2, the lungs, bronchi and trachea of animal 102 were removed from the animal. The lungs were perfused with 4% paraformaldehyde, introduced using a syringe, via the trachea and/or bronchus and stored in this fixative at ambient temperature for a period of approximately 21 hours. Following this, as much as possible of the original fixative fluid was withdrawn by syringe via the trachea/bronchus and replaced with 0.2% paraformaldehyde. The fixed lungs were analyzed for fluorescence distribution.
At the time of necropsy following Treatment 2, the right kidney of animal 102 was removed from the animal. The kidney was dissected into quarters by making one longitudinal and one transverse cut, each to pass through the hilus, and then immersed in 4% paraformaldehyde and refrigerated for approximately 21 hours. Following this, the fixing solution was changed to 0.2% paraformaldehyde and the kidney was analyzed for fluorescence distribution.
Following Treatment 2, lung and kidney samples from animal 102 were analyzed for distribution of fluorescence (from REDD14Cy3.5 siRNA). The results were considered to be qualitative.

Setting [2] is: Treatment 2, animal 102, approximately 30 minutes post-end of dosing, qualitative.

The values below come from patent US20100215588A1, “THERAPEUTIC DELIVERY OF INHIBITORY NUCLEIC ACID MOLECULES TO THE RESPIRATORY SYSTEM” (priority 2007, published 2010).

For the molecule “REDD14: exemplary siRNA in aqueous solution directed against gene RTP801; sense GUGCCAACCUGAUGCAGCU, antisense AGCUGCAUCAGGUUGGCAC (chemistry not fully specified)”, in the data set with RTP801 (50 μg siRNA instilled intranasally, FIG. 3b), the “RTP801 expression in the lungs” value is listed as “reduction of RTP801 expression in the lungs”. Further, the “cigarette smoking induced apoptosis of lung septal cells (activated caspase staining, caspase 3 immunoblot)” value in the data set on RTP801 (1 week of cigarette smoking, FIG. 3c) is “partially protected from cigarette smoking induced apoptosis of lung septal cells”. Also, the “cigarette smoking induced inflammation (number of inflammatory bronchoalveolar lavage cells)” value in the data set with RTP801 (1 week of cigarette smoking, versus control siRNA REDD8, FIG. 3a) is reported as “partially protected from cigarette smoking induced inflammation”.

“GFP siRNA: control siRNA targeting GFP; sense 5′-GGCUACGUCCAGGAGCGCACC-3′, antisense 5′-GGUGCGCUCCUGGACGUAGCC-3′ (alternating 2'-O-methyl on both strands, starting position not given here)”: the “Mean (SD) tumor weight” value in the data set with A549 lung tumors is 710 (167.93) mg.

For the molecule “Nrf2 siRNA: siRNA targeting human Nrf2, alternating 2-O′-Me; sense 5′-UCCCGUUUGUAGAUGACAA-3′, antisense 5′-UUGUCAUCUACAAACGGGA-3′ (alternating 2'-O-methyl on both strands, starting position not given here)”, the “Nrf2 reporter activity in vivo” value with Nrf2 is recorded as “inhibited Nrf2 reporter activity in vivo”. Further, in the data set with A549 lung tumors, the “Mean (SD) tumor weight” value is given as 802 (172.25) mg.

As to “REDD14Cy3.5: fluorescent-labelled (Cy3.5) REDD14, RTP801 inhibiting siRNA; sense GUGCCAACCUGAUGCAGCU, antisense AGCUGCAUCAGGUUGGCAC (Cy3.5 fluorescent label, position and strand not given here)”, in data set [1] (setting [2]), the “fluorescent label in lungs” value is given as “detected in all sections taken from all lobes of the lungs” and the “fluorescent label in right kidney” value is “little label detected in the right kidney”. For the same molecule, in data set [1] (after oronasal inhalation), the “distribution in lung, I5NP (hybridization) and REDD14Cy3.5 (fluorescence) compared” value is recorded as “little difference in the distribution of the two test articles in lung”.

Take `N.N.O=C([O-])C1(C(=O)[O-])CCC1.[Pt+2]` [Vehicle siRNA + carboplatin, carboplatin]: the “Mean (SD) tumor weight” value in the data set on A549 lung tumors is reported as 495 (49.5) mg.
